Values quoted from earlier work in patent publication US7687492B2, “1,2,4-Oxadiazole derivatives as dipeptidyl peptidase-IV inhibitors for the treatment or prevention of diabetes” (Merck Sharp & Dohme Corp., priority 2004, dated 2010).

How the values were obtained:
[1] = rats; Transplantation, 63: 1495-1500 (1997)
[2] = mouse, cyclophosphamide-induced neutropenia; WO 99/56753
DP-IV = target: T1, DP-IV (Homo sapiens, UniProt P27487)
T1 construct: GRF is rapidly degraded in plasma to GRF[3-44]; host or cells: plasma (endogenous enzyme activity)
T1 sequence (P27487 whole entry): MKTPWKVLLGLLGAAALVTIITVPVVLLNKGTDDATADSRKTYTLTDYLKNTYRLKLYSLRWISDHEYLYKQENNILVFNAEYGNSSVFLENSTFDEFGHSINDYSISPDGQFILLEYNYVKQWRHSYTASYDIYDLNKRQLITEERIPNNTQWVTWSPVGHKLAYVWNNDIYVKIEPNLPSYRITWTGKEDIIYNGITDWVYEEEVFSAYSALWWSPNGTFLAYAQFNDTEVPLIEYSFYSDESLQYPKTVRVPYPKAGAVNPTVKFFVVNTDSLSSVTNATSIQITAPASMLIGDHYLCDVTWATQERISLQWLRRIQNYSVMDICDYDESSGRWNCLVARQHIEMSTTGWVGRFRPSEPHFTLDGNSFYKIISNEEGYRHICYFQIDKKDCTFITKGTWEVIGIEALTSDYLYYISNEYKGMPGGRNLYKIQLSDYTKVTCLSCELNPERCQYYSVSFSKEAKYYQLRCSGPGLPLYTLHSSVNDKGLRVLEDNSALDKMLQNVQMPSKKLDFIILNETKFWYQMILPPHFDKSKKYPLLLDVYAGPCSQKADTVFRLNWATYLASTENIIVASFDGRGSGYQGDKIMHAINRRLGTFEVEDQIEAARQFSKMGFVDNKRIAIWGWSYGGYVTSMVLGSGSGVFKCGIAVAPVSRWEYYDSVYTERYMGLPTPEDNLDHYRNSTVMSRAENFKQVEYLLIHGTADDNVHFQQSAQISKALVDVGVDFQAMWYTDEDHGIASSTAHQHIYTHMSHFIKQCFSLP

## CC(C)N1CCC(c2ccccc2)(c2ccccc2)CC1 [Prodipine, Pro-Pro-diphenyl-phosphonate]
[1]
  cardiac allograft survival: double cardiac allograft survival in rats from day 7 to day 14

## CC(C)[C@H](N)C(=O)N1CCC[C@H]1B(O)O [Val-Boro-Pro]
[2]
  hematopoiesis: stimulated hematopoiesis

## diprotin A
DP-IV
  degradation of GRF in plasma to GRF[3-44]: prevented
